In patent publication US20260258035A1, “FIVE-MEMBERED AND SIX-MEMBERED NITROGEN-CONTAINING COMPOUND, AND INTERMEDIATE, PREPARATION METHOD AND USE THEREOF” (HANGZHOU SYNRX THERAPEUTICS BIOMEDICAL TECHNOLOGY CO., LTD., priority 2022, published 2026):
Read-outs that look alike come from different tables or passages of the source.

Tests used:
HCC1806 = assay: Cell viability assay (CellTiter-Glo); format: cell-based, Human; conditions: HCC1806, 7 days, CellTiter-Glo, read-out: IC50 (nM) in cell viability assay
PARG = PARG (Homo sapiens, UniProt Q86W56); assay: Biochemical assay (PARG, TFMU-ADPr substrate); conditions: PARG, TFMU-ADPr substrate
PARG, sequence (Q86W56 whole entry): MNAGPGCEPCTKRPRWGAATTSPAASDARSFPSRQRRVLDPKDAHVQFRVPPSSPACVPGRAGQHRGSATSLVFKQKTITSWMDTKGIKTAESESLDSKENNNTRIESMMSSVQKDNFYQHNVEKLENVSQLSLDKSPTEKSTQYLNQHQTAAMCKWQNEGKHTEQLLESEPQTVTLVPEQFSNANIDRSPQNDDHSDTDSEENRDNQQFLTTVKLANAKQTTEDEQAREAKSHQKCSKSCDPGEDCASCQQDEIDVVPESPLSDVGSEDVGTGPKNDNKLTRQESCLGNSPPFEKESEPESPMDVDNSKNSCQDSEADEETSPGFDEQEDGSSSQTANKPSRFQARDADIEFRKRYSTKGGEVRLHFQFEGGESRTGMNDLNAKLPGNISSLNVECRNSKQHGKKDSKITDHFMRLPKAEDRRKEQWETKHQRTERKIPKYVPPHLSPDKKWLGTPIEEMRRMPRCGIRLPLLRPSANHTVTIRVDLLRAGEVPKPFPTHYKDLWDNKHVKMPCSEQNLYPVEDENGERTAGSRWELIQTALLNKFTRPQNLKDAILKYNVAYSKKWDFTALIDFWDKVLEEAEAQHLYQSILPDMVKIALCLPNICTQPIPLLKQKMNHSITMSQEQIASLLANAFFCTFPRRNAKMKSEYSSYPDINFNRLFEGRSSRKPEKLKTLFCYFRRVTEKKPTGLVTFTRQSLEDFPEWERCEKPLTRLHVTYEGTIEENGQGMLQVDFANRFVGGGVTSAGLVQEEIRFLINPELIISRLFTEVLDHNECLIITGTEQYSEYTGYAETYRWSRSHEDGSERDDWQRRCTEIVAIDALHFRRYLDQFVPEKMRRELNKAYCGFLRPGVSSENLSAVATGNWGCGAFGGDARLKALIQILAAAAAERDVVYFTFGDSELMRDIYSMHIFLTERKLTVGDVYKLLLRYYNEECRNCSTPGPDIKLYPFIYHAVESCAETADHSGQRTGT

SMILES	IC50 (HCC1806; Homo sapiens, HCC1806, 168 h) [nM]	IC50 (PARG) [nM]	IC50 (HCC1806) [nM]
CC(C)N1CC(C(=O)N2CCN(c3cc(S(=O)(=O)NC4(C#N)CC4)cn4c(-c5nnc(C(F)F)s5)ncc34)C[C@H]2C)C1 [Example 295, (R)-N-(1-cyanocyclopropyl)-3-(5-(difluoromethyl)-1,3,4-thiadiazol-2-yl)-8-(4-(1-isopropylazetidine-3-carbonyl)-3-methylpiperazin-1-yl)imidazo[1,5-a]pyridine-6-sulfonamide]	2820	39.8	–
COC(C)(C)C(=O)N1CCN(c2cc(S(=O)(=O)NC3(C#N)CC3)cn3c(-c4nnc(C(F)(F)F)s4)ncc23)CC1 [Example 296, N-(1-cyanocyclopropyl)-8-(4-(2-methoxy-2-methylpropanoyl)piperazin-1-yl)-3-(5-(trifluoromethyl)-1,3,4-thiadiazol-2-yl)imidazo[1,5-a]pyridine-6-sulfonamide]	38.7	3.02	–
N#CC1(NS(=O)(=O)c2cc(N3CCN(C(=O)C4C5COCC54)CC3)c3cnc(-c4nnc(C(F)(F)F)s4)n3c2)CC1 (stereo not shown) [Example 297, 8-(4-(3-oxabicyclo[3.1.0]hexane-6-carbonyl)piperazin-1-yl)-N-(1-cyanocyclopropyl)-3-(5-(trifluoromethyl)-1,3,4-thiadiazol-2-yl)imidazo[1,5-a]pyridine-6-sulfonamide]	362	55	–
CC1(C(=O)N2CCN(c3cc(S(=O)(=O)NC4(C#N)CC4)cn4c(-c5nnc(C(F)(F)F)s5)ncc34)CC2)COC1 [Example 299, N-(1-cyanocyclopropyl)-8-(4-(3-methyloxetane-3-carbonyl)piperazin-1-yl)-3-(5-(trifluoromethyl)-1,3,4-thiadiazol-2-yl)imidazo[1,5-a]pyridine-6-sulfonamide]	1030	24	–
C[C@@H]1CN(c2cc(S(=O)(=O)NC3(C#N)CC3)cn3c(-c4nnc(C(F)(F)F)s4)ncc23)CCN1C(=O)C1CCO1 (stereo partly drawn) [Example 302, N-(1-cyanocyclopropyl)-8-((3R)-3-methyl-4-(oxetane-2-carbonyl)piperazin-1-yl)-3-(5-(trifluoromethyl)-1,3,4-thiadiazol-2-yl)imidazo[1,5-a]pyridine-6-sulfonamide]	329	15.4	–
CC1(NS(=O)(=O)c2cc(N3CCC(O)CC3)c3cnc(-c4nnc(C(F)F)s4)n3c2)CC1 [Example 305, 3-(5-(difluoromethyl)-1,3,4-thiadiazol-2-yl)-8-(4-hydroxypiperidin-1-yl)-N-(1-methylcyclopropyl)imidazo[1,5-a]pyridine-6-sulfonamide]	130	6.91	–
C[C@@H]1CN(c2cc(S(=O)(=O)NC3(C)CC3)cn3c(-c4nnc(C(F)(F)F)s4)ncc23)CCN1C(=O)[C@H]1CCN1C [Example 306, 8-((R)-3-methyl-4-((R)-1-methylazetidine-2-carbonyl)piperazin-1-yl)-N-(1-methylcyclopropyl)-3-(5-(trifluoromethyl)-1,3,4-thiadiazol-2-yl)imidazo[1,5-a]pyridine-6-sulfonamide]	89	6.11	–
CC1(NS(=O)(=O)c2cc(N3CCN(C(=O)c4ccc5c(c4)OCO5)CC3)c3cnc(-c4nnc(C(F)(F)F)s4)n3c2)CC1 [Example 307, 8-(4-(benzo[d][1,3]dioxole-5-carbonyl)piperazin-1-yl)-N-(1-methylcyclopropyl)-3-(5-(trifluoromethyl)-1,3,4-thiadiazol-2-yl)imidazo[1,5-a]pyridine-6-sulfonamide]	540	4.13	–
CN(C)C(=O)N1CCN(c2cc(S(=O)(=O)NC3(C)CC3)cn3c(-c4nnc(C(F)F)s4)ncc23)CC1 [Example 308, 4-(3-(5-(difluoromethyl)-1,3,4-thiadiazol-2-yl)-6-(N-(1-methylcyclopropyl)sulfamoyl)imidazo[1,5-a]pyridin-8-yl)-N,N-dimethylpiperazine-1-carboxamide]	104	0.73	–
CN1CC[C@@H]1C(=O)N1CCN(c2cc(S(=O)(=O)NC3(C)CC3)cn3c(-c4nnc(C(F)F)s4)ncc23)CC1 [Example 309, (R)-3-(5-(difluoromethyl)-1,3,4-thiadiazol-2-yl)-8-(4-(1-methylazetidine-2-carbonyl)piperazin-1-yl)-N-(1-methylcyclopropyl)imidazo[1,5-a]pyridine-6-sulfonamide]	570	1.03	–
COC1(C(=O)N2CCN(c3cc(S(=O)(=O)NC4(C)CC4)cn4c(-c5nnc(C(F)F)s5)ncc34)CC2)CN(C)C1 [Example 310, 3-(5-(difluoromethyl)-1,3,4-thiadiazol-2-yl)-8-(4-(3-methoxy-1-methylazetidine-3-carbonyl)piperazin-1-yl)-N-(1-methylcyclopropyl)imidazo[1,5-a]pyridine-6-sulfonamide]	38	< 0.1	–
COC1(C(=O)N2CCN(c3cc(S(=O)(=O)NC4(C)CC4)cn4c(-c5nnc(C(F)F)s5)ncc34)CC2)CN(CCF)C1 [Example 312, 3-(5-(difluoromethyl)-1,3,4-thiadiazol-2-yl)-8-(4-(1-(2-fluoroethyl)-3-methoxyazetidine-3-carbonyl)piperazin-1-yl)-N-(1-methylcyclopropyl)imidazo[1,5-a]pyridine-6-sulfonamide]	6.02	< 0.1	–
C[C@@H]1CN(c2cc(S(=O)(=O)NC3(C)CC3)cn3c(-c4nnc(C(F)F)s4)ncc23)CCN1C(=O)C1CNC1 [Example 315, (R)-8-(4-(azetidine-3-carbonyl)-3-methylpiperazin-1-yl)-3-(5-(difluoromethyl)-1,3,4-thiadiazol-2-yl)-N-(1-methylcyclopropyl)imidazo[1,5-a]pyridine-6-sulfonamide]	5700	0.96	–

The remaining lines, values ahead:

IC50 (HCC1806; Homo sapiens, HCC1806, 168 h) [nM]	IC50 (PARG) [nM]	IC50 (HCC1806) [nM]	SMILES
65	9.55	–	CC1(NS(=O)(=O)c2cc(N3CCN(C(=O)C4(O)CC4)CC3)c3cnc(-c4nnc(C(F)(F)F)s4)n3c2)CC1 [Example 291, 8-(4-(1-hydroxycyclopropane-1-carbonyl)piperazin-1-yl)-N-(1-methylcyclopropyl)-3-(5-(trifluoromethyl)-1,3,4-thiadiazol-2-yl)imidazo[1,5-a]pyridine-6-sulfonamide]
40	4.57	–	CC1(NS(=O)(=O)c2cc(N3CCN(C(=O)C4CCOCC4)CC3)c3cnc(-c4nnc(C(F)(F)F)s4)n3c2)CC1 [Example 292, N-(1-methylcyclopropyl)-8-(4-(tetrahydro-2H-pyran-4-carbonyl)piperazin-1-yl)-3-(5-(trifluoromethyl)-1,3,4-thiadiazol-2-yl)imidazo[1,5-a]pyridine-6-sulfonamide]
97	9.12	–	CC1(NS(=O)(=O)c2cc(N3CCN(C(=O)C4CCOC4)CC3)c3cnc(-c4nnc(C(F)(F)F)s4)n3c2)CC1 (stereo not shown) [Example 293, N-(1-methylcyclopropyl)-8-(4-(tetrahydrofuran-3-carbonyl)piperazin-1-yl)-3-(5-(trifluoromethyl)-1,3,4-thiadiazol-2-yl)imidazo[1,5-a]pyridine-6-sulfonamide]
–	31.6	403	N#CC1(NS(=O)(=O)c2cc(N3CCN(C(=O)C4CCO4)CC3)c3cnc(-c4nnc(C(F)(F)F)s4)n3c2)CC1 (stereo not shown) [Example 300, N-(1-cyanocyclopropyl)-8-(4-(oxetane-2-carbonyl)piperazin-1-yl)-3-(5-(trifluoromethyl)-1,3,4-thiadiazol-2-yl)imidazo[1,5-a]pyridine-6-sulfonamide]
436	50.1	–	N#CC1(NS(=O)(=O)c2cc(N3CCN(C(=O)[C@@H]4CCCO4)CC3)c3cnc(-c4nnc(C(F)(F)F)s4)n3c2)CC1 [Example 301, (S)-N-(1-cyanocyclopropyl)-8-(4-(tetrahydrofuran-2-carbonyl)piperazin-1-yl)-3-(5-(trifluoromethyl)-1,3,4-thiadiazol-2-yl)imidazo[1,5-a]pyridine-6-sulfonamide]
435	20.9	–	N#CC1(NS(=O)(=O)c2cc(N3CCN(C(=O)[C@H]4CCCO4)CC3)c3cnc(-c4nnc(C(F)(F)F)s4)n3c2)CC1 [Example 303, (R)-N-(1-cyanocyclopropyl)-8-(4-(tetrahydrofuran-2-carbonyl)piperazin-1-yl)-3-(5-(trifluoromethyl)-1,3,4-thiadiazol-2-yl)imidazo[1,5-a]pyridine-6-sulfonamide]
70	3.86	–	CC1(NS(=O)(=O)c2cc(N3CCN(C(=O)C4CCO4)CC3)c3cnc(-c4nnc(C(F)(F)F)s4)n3c2)CC1 (stereo not shown) [Example 304, N-(1-methylcyclopropyl)-8-(4-(oxetane-2-carbonyl)piperazin-1-yl)-3-(5-(trifluoromethyl)-1,3,4-thiadiazol-2-yl)imidazo[1,5-a]pyridine-6-sulfonamide]
2050	1.64	–	CC1(NS(=O)(=O)c2cc(N3CCN(C(=O)C4(C)CNC4)CC3)c3cnc(-c4nnc(C(F)(F)F)s4)n3c2)CC1 [Example 313, 8-(4-(3-methylazetidine-3-carbonyl)piperazin-1-yl)-N-(1-methylcyclopropyl)-3-(5-(trifluoromethyl)-1,3,4-thiadiazol-2-yl)imidazo[1,5-a]pyridine-6-sulfonamide]
241	0.68	–	CN1CC(C)(C(=O)N2CCN(c3cc(S(=O)(=O)NC4(C)CC4)cn4c(-c5nnc(C(F)(F)F)s5)ncc34)CC2)C1 [Example 314, 8-(4-(1,3-dimethylazetidine-3-carbonyl)piperazin-1-yl)-N-(1-methylcyclopropyl)-3-(5-(trifluoromethyl)-1,3,4-thiadiazol-2-yl)imidazo[1,5-a]pyridine-6-sulfonamide]
918	4.46	–	CC1(NS(=O)(=O)c2cc(N3CCN(C(=O)[C@@H]4CCCN4)CC3)c3cnc(-c4nnc(C(F)(F)F)s4)n3c2)CC1 [Example 316, (S)-N-(1-methylcyclopropyl)-8-(4-prolylpiperazin-1-yl)-3-(5-(trifluoromethyl)-1,3,4-thiadiazol-2-yl)imidazo[1,5-a]pyridine-6-sulfonamide]
